# Experiments:
# Experiment in all cases: relative viability (nuclei count vs DMSO), 5 days (fraction); higher = more cells survive
# [1] = compound: C[C@]12O[C@H](C[C@]1(O)CO)n1c3ccccc3c3c4c(c5c6ccccc6n2c5c31)CNC4=O [Lestaurtinib] + CS(=O)(=O)CCNCc1ccc(-c2ccc3ncnc(Nc4ccc(OCc5cccc(F)c5)c(Cl)c4)c3c2)o1 [Lapatinib] (partner 2 µM)
# How it was run: (§1)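 Lung cancer cell lines were pin-tool dosed in 1536-well plates on the day after seeding, with either a lone drug or a fixed anchor-drug dose plus five library-drug doses (not always all listed) in √10 steps. Nuclei were counted on 4× images after 5 days. Relative viability is the ratio of treated-well to vehicle-well nuclei counts, with each value a median of duplicate plates.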
# [2] = compound: C[C@]12O[C@H](C[C@]1(O)CO)n1c3ccccc3c3c4c(c5c6ccccc6n2c5c31)CNC4=O [Lestaurtinib] + Cc1cc(Nc2cc(N3CCN(C)CC3)nc(Sc3ccc(NC(=O)C4CC4)cc3)n2)n[nH]1 [Tozasertib] (partner 0.1 µM)
# How it was run: as §1
# [3] = compound: C1=CC(=CC=C1C2=CC(=C(S2)NC(=O)N)C(=O)N)F [TPCA-1] + Nc1nc2[nH]cc(CCc3ccc(C(=O)N[C@@H](CCC(=O)O)C(=O)O)cc3)c2c(=O)[nH]1 [Pemetrexed] (partner 0.2 µM)
# How it was run: as §1
# [4] = compound: C[C@]12O[C@H](C[C@]1(O)CO)n1c3ccccc3c3c4c(c5c6ccccc6n2c5c31)CNC4=O [Lestaurtinib] + CC(C)C[C@H](NC(=O)[C@H](Cc1ccccc1)NC(=O)c1cnccn1)B(O)O [Bortezomib] (partner 0.002 µM)
# How it was run: as §1
Cell Line,relative viability ([1]; first compound 0.005 µM),relative viability ([1]; first compound 0.01581 µM),relative viability ([1]; first compound 0.05 µM),relative viability ([1]; first compound 0.1581 µM),relative viability ([1]; first compound 0.5 µM),relative viability ([2]; first compound 0.005 µM),relative viability ([2]; first compound 0.01581 µM),relative viability ([2]; first compound 0.05 µM),relative viability ([2]; first compound 0.1581 µM),relative viability ([2]; first compound 0.5 µM),relative viability ([3]; first compound 0.04 µM),relative viability ([3]; first compound 0.1265 µM),relative viability ([3]; first compound 0.4 µM),relative viability ([3]; first compound 1.265 µM),relative viability ([3]; first compound 4 µM),relative viability ([4]; first compound 0.005 µM),relative viability ([4]; first compound 0.01581 µM),relative viability ([4]; first compound 0.05 µM),relative viability ([4]; first compound 0.1581 µM),relative viability ([4]; first compound 0.5 µM)
NCI-H647,0.837,0.735,0.217,0.146,0.114,0.375,0.328,0.188,0.124,0.126,0.177,0.172,0.183,0.163,0.182,0.994,0.828,0.276,0.244,0.133
NCI-H650,0.732,1.22,0.455,0.421,0.26,0.727,0.802,0.603,0.483,0.29,0.952,0.916,0.994,0.631,0.809,0.651,1.03,0.678,0.452,0.314
EKVX,0.192,0.221,0.195,0.194,0.198,0.345,0.432,0.417,0.378,0.395,0.43,,0.343,0.329,0.375,1.1,1.26,0.999,1.19,0.679
NCI-H460,0.869,1.33,0.23,0.415,0.0473,0.519,0.478,0.524,0.986,0.303,0.0613,0.0689,,0.0518,0.0585,1.08,1.35,0.926,1.44,0.84
LCLC-97TM1,1.18,1.18,0.767,0.196,0.163,0.317,0.177,0.0893,0.133,0.171,0.17,0.186,0.163,0.153,0.154,,0.723,0.299,0.282,0.226
COR-L23,1.08,1.24,,0.623,0.271,0.197,0.229,0.184,0.174,0.184,0.206,0.207,0.184,0.193,0.196,1.21,1.07,,0.697,0.464
NCI-H1355,1.06,1.03,0.942,0.732,0.658,0.51,0.52,0.377,0.441,0.287,1.06,1,1.01,0.945,0.878,1.36,1.2,1.21,1.03,0.571
NCI-H1666,0.732,1.2,0.51,0.556,0.277,0.656,0.663,0.686,0.531,0.373,1.02,0.818,0.842,0.82,0.93,0.87,1.25,0.969,0.765,0.35
EPLC-272H,0.87,1.06,0.616,0.513,0.5,0.297,0.282,0.322,0.231,0.128,0.287,0.331,0.371,0.359,0.266,1.02,1.15,0.603,0.828,0.486
NCI-H1651,0.756,0.93,0.715,0.636,0.211,0.706,0.756,0.771,0.694,0.492,0.601,0.538,0.532,0.527,0.338,0.878,1.07,0.883,1.03,0.648
HCC-44,0.985,1.14,0.851,1.14,0.479,0.882,1.08,0.996,1.48,0.354,0.617,0.657,0.575,0.627,0.595,0.925,0.997,0.873,1.06,0.683
SW 1573,1.33,1.16,1.02,0.767,0.738,0.146,0.172,0.142,0.1,0.116,0.792,0.823,0.844,0.924,0.715,1.2,1.05,0.842,0.916,0.727
PC-3 [JPC-3],0.425,0.498,0.456,0.414,0.335,0.87,0.998,0.765,0.777,0.587,1.17,1.03,1.22,1.09,0.535,0.82,0.788,0.738,0.914,0.746
LOU-NH91,0.768,0.721,0.638,0.562,0.404,0.61,0.602,0.628,0.496,0.295,0.399,0.376,0.389,0.392,0.532,0.486,0.549,0.53,0.511,0.373
PC-14,0.437,0.378,0.325,0.286,0.31,0.639,0.668,0.674,0.546,0.163,0.136,0.128,0.133,0.134,0.138,0.993,0.778,0.83,0.623,0.434
NCI-H2087,1.31,1.05,0.858,0.693,0.205,0.321,0.378,0.208,0.265,0.212,0.615,0.472,0.646,0.651,0.539,0.882,0.936,0.745,0.764,0.354

# Reference: the supplement of paper PMC10307832
